≈ marks a conversion by molar mass, not a printed value.
Assays:
Candida albicans = experiment: Compound was tested in vitro for antifungal activity against Candida albicans.; type: functional
Trichophyton benhamiae [1] = experiment: (§1) Compound was tested in vitro for antifungal activity against Trichophyton mentagrophytes.; type: functional, trichophyton mentagro
Aspergillus flavus [2] = experiment: (§2) Compound was tested in vitro for antifungal activity against Aspergillus flavus.; type: functional, asperigillus
Kluyveromyces marxianus = experiment: Compound was tested in vitro for antifungal activity against Candida kefyr.; type: functional
Aspergillus fumigatus = experiment: Compound was tested in vitro for antifungal activity against Aspergillus fumigatus.; type: functional
Cryptococcus neoformans = experiment: Compound was tested in vitro for antifungal activity against Cryptococcus neoformans.; type: functional
Aspergillus flavus [3] = experiment: as §2; type: functional
Trichophyton benhamiae [4] = experiment: as §1; type: functional, Arthroderma benhamiae

SMILES | MIC (Candida albicans) [µg/mL] | MIC (Trichophyton benhamiae [1]) [µg/mL] | MIC (Aspergillus flavus [2]) [µg/mL] | MIC (Kluyveromyces marxianus) [µg/mL] | MIC (Aspergillus fumigatus) [µg/mL] | MIC (Cryptococcus neoformans) [µg/mL] | MIC (Aspergillus flavus [3]) [µg/mL] | MIC (Trichophyton benhamiae [4]) [µg/mL]
Clc1ccc(CN2CCc3ccccc3C2Cn2cncn2)cc1 (stereo not drawn) | > 50 | 0.25 (≈ 0.738 µM) | 25 (≈ 73.8 µM) | 0.39 (≈ 1.15 µM) | 4 (≈ 11.8 µM) | 6.25 (≈ 18.4 µM) | – | –
c1ccc(CN2CCc3ccccc3C2Cn2ccnc2)cc1 (stereo not drawn) | > 50 | 0.19 (≈ 0.626 µM) | 25 (≈ 82.4 µM) | > 50 | 25 (≈ 82.4 µM) | > 50 | – | –
Clc1ccc(CN2CCc3ccccc3C2Cn2ccnc2)c(Cl)c1 (stereo not drawn) | > 50 | 6.25 (≈ 16.8 µM) | 0.78 (≈ 2.1 µM) | 0.19 (≈ 0.51 µM) | 0.39 (≈ 1.05 µM) | 1.56 (≈ 4.19 µM) | – | –
Fc1ccc(CN2CCc3ccccc3C2Cn2cncn2)cc1 (stereo not drawn) | > 50 | 1 (≈ 3.1 µM) | > 50 | > 50 | > 50 | > 50 | – | –
Fc1ccc(CN2CCc3ccccc3C2Cn2ccnc2)c(F)c1 (stereo not drawn) | > 50 | 0.39 (≈ 1.15 µM) | 0.78 (≈ 2.3 µM) | > 50 | 6.25 (≈ 18.4 µM) | > 50 | – | –
Fc1ccc(CN2CCc3ccccc3C2Cn2cncn2)c(F)c1 (stereo not drawn) | > 50 | 2 (≈ 5.88 µM) | > 50 | 0.39 (≈ 1.15 µM) | > 50 | > 50 | – | –
Clc1ccc(CN2CCc3ccccc3C2Cn2ccnc2)cc1 (stereo not drawn) | > 50 | 0.19 (≈ 0.562 µM) | 0.19 (≈ 0.562 µM) | 0.1 (≈ 0.296 µM) | 3.12 (≈ 9.23 µM) | 0.39 (≈ 1.15 µM) | – | –
Clc1ccc(CN2CCc3ccccc3C2Cn2cncn2)c(Cl)c1 (stereo not drawn) | > 50 | 4 (≈ 10.7 µM) | > 50 | > 50 | > 50 | 12.5 (≈ 33.5 µM) | – | –
Fc1ccc(CN2CCc3ccccc3C2Cn2ccnc2)cc1 (stereo not drawn) | > 50 | 0.1 (≈ 0.311 µM) | 6.25 (≈ 19.4 µM) | > 50 | 12.5 (≈ 38.9 µM) | > 50 | – | –
c1ccc(CN2CCc3ccccc3C2Cn2cncn2)cc1 (stereo not drawn) | > 50 | 4 (≈ 13.1 µM) | > 50 | > 50 | > 50 | > 50 | – | –
C[C@@H]1[C@H](O)[C@@H](C)/C=C/C=C/C=C/C=C/C=C/C=C/C=C/[C@H](O[C@@H]2O[C@H](C)[C@@H](O)[C@H](N)[C@@H]2O)C[C@@H]2O[C@](O)(C[C@@H](O)C[C@@H](O)[C@H](O)CC[C@@H](O)C[C@@H](O)CC(=O)O[C@H]1C)C[C@H](O)[C@H]2C(=O)O [AMPHOTERICIN B] | 0.19 (≈ 0.206 µM) | 1.56 (≈ 1.69 µM) | 12.5 (≈ 13.5 µM) | 0.19 (≈ 0.206 µM) | 25 (≈ 27.1 µM) | 0.19 (≈ 0.206 µM) | – | –
OC(Cn1cncn1)(Cn1cncn1)c1ccc(F)cc1F [FLUCONAZOLE] | > 50 | – | – | 0.39 (≈ 1.27 µM) | > 50 | 3.12 (≈ 10.2 µM) | > 50 | > 50
Clc1ccc(COC(Cn2ccnc2)c2ccc(Cl)cc2Cl)c(Cl)c1 (stereo not drawn) [MICONAZOLE] | 12.5 (≈ 30 µM) | – | – | 0.09 (≈ 0.216 µM) | 0.39 (≈ 0.937 µM) | 0.19 (≈ 0.457 µM) | 0.39 (≈ 0.937 µM) | 0.39 (≈ 0.937 µM)
